Columns and labels:
[1] = target: T1, rat vanilloid receptor 1 (VR1/TRPV1) (Rattus norvegicus, UniProt O35433); experiment: FLIPR Ca2+ influx functional study on rat vanilloid receptor 1; format: cell-based; settings: CHO K1 cells transfected with rat VR1; for Emax at 10 µM: test substance 10 μM, Ca2+ signal relative to 10 μM capsaicin, read-out: VR1 (Rat) (% Stimulation compared with 10 μM CP)
T1 construct: expressed in transfected cells; host or cells: CHO K1 cells (ECACC)
Excerpt: (§1) 1. Functional Study on the Vanilloid Receptor 1 (VR1/TRPV1 Receptor)
(§2) The agonist activity or antagonist activity of the substances to be tested on the vanilloid receptor 1 (VR1/TRPV1) of the species human and rat can be determined using the following assay. According to this assay, the Ca^2+ influx through the channel is quantified by means of a Ca^2+-sensitive dye (type Fluo-4, Molecular Probes Europe BV, Leiden, Netherlands) in the Fluorescent Imaging Plate Reader (FLIPR, Molecular Devices, Sunnyvale, USA).
(§3) Chinese hamster ovary cells (CHO K1 cells, European Collection of Cell Cultures (ECACC), England) are stably transfected with the human or rat vanilloid receptor 1 (VR1) gene. For functional studies, these cells are plated out in a density of 25,000 cells/well on poly-D-lysine-coated, black 96-well plates having a clear base (BD Biosciences, Heidelberg, Germany). The cells are incubated overnight at 37° C. and 5% CO2 in culture medium (Nutrient Mixture Ham's F12, Gibco Invitrogen GmbH, Karlsruhe, Germany) with 10% v/v of FBS (fetal bovine serum, Gibco Invitrogen GmbH, Karlsruhe, Germany) and 18 μg/ml of L-proline (Gibco Invitrogen GmbH, Karlsruhe, Germany). On the following day, the cells are charged with 2 μM of Fluo-4 and 0.01% v/v of Pluronic F127 (Molecular Probes Europe BV, Leiden, Netherlands) in HBSS buffer solution (Hank's buffered saline solution, Gibco Invitrogen GmbH, Karlsruhe, Germany) for 30 minutes at 37° C. The plates are then washed three times with HBSS buffer solution and, after incubation for a further 15 minutes at room temperature, used in the FLIPR assay for Ca^2+ measurement. The Ca^2+-dependent fluorescence is measured before and after the addition of test substances (λex=488 nm, λem=540 nm). Quantification is effected by measuring the highest fluorescence intensity (FC, fluorescence counts) over time.
(§4) The FLIPR protocol consists of two additions of test substance. Test substances (10 μM) are first pipetted onto the cells and the Ca^2+ influx is compared with the control (capsaicin 10 μM). This gives the percentage activation, based on the Ca^2+ signal after the addition of 10 μM of capsaicin (CP). After 5 minutes' incubation, 100 nM of capsaicin are applied and the influx of Ca^2+ is likewise determined. Desensitizing agonists and antagonists lead to suppression of the Ca^2+ influx. The percentage inhibition compared with the maximum achievable inhibition is calculated using 10 μM of capsaicin. In order to determine the EC50 values, the substances are added in various concentrations. Determinations are carried out in triplicate (n=3) and these are repeated in at least three independent experiments (N=4).
(§5) The agonist activity or antagonist activity was determined on human and rat vanilloid receptor 1 (VR1/TRPV1 receptor) using the above-described FLIPR assay.

[2] = target: T2, human vanilloid receptor 1 (VR1/TRPV1) (Homo sapiens, UniProt Q8NER1); experiment: FLIPR Ca2+ influx functional study on human vanilloid receptor 1; format: cell-based; settings: CHO K1 cells transfected with human VR1; for Emax at 10 µM: test substance 10 μM, Ca2+ signal relative to 10 μM capsaicin, read-out: VR1 (Human) (% Stimulation compared with 10 μM CP)
T2 construct: expressed in transfected cells; host or cells: CHO K1 cells (ECACC)
Excerpt: as §1, §2, §3, §4, §5

[3] = tested on: phenylquinone-induced writhing in mice; experiment: Phenylquinone-induced writhing test on mice; format: in vivo, male NMRI mice; settings: phenylquinone i.p. 10 min after dose
Experimental: 2. Analgesic Test Using the Writhing Test on Mice
The analysis of analgesic activity in the compounds of the invention of formula is carried out using the phenylquinone-induced writhing assay in mice, modified as described in the article by I. C. Hendershot and J. Forsaith (1959) in J. Pharmacol. Exp. Ther. 125, 237-240. The relevant description is incorporated herein by reference and is to be regarded as part of the present disclosure.
For the present purpose, male NMRI mice are used having a weight of from 25 to 30 g. Groups of 10 animals per substance dose received, 10 minutes after an intravenous dose of test substances, an intraperitoneal administration of 0.3 ml/mouse of a 0.02% strength aqueous solution of phenylquinone(phenylbenzoquinone, obtainable from Sigma, Deisenhofen; solution produced with the addition of 5% of ethanol and storage in a water bath at 45° C.). The animals were placed individually in observation cages. Using a pushbutton counter, the number of pain-induced stretching movements (so-called writhing reactions=straightening of the body accompanied by stretching of the rear extremities) was counted over a period of from 5 to 20 minutes following the administration of phenylquinone. The control is provided by animals receiving only physiological saline. […]

T2 sequence (Q8NER1 whole entry): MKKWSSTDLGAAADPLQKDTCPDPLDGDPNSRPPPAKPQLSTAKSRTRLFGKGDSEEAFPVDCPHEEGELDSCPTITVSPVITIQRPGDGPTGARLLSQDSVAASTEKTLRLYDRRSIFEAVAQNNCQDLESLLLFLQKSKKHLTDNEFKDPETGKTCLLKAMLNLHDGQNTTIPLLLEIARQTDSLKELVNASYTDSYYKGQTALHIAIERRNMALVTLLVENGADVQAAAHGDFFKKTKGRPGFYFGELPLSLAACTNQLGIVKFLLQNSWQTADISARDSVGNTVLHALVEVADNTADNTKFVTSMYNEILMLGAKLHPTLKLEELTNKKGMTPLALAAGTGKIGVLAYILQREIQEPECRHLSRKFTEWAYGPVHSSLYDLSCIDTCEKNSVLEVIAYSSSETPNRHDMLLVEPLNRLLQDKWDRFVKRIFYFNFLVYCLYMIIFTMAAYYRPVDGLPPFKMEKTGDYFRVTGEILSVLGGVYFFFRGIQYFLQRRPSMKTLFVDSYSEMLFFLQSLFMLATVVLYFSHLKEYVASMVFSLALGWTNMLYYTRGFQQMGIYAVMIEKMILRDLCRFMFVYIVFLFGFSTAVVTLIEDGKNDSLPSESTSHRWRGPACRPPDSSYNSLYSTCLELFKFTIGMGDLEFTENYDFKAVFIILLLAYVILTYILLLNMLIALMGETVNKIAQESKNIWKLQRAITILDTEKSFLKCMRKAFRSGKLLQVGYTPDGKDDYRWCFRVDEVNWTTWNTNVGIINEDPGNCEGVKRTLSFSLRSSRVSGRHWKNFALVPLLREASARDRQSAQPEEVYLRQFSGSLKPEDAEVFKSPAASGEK
T1 sequence (O35433 whole entry): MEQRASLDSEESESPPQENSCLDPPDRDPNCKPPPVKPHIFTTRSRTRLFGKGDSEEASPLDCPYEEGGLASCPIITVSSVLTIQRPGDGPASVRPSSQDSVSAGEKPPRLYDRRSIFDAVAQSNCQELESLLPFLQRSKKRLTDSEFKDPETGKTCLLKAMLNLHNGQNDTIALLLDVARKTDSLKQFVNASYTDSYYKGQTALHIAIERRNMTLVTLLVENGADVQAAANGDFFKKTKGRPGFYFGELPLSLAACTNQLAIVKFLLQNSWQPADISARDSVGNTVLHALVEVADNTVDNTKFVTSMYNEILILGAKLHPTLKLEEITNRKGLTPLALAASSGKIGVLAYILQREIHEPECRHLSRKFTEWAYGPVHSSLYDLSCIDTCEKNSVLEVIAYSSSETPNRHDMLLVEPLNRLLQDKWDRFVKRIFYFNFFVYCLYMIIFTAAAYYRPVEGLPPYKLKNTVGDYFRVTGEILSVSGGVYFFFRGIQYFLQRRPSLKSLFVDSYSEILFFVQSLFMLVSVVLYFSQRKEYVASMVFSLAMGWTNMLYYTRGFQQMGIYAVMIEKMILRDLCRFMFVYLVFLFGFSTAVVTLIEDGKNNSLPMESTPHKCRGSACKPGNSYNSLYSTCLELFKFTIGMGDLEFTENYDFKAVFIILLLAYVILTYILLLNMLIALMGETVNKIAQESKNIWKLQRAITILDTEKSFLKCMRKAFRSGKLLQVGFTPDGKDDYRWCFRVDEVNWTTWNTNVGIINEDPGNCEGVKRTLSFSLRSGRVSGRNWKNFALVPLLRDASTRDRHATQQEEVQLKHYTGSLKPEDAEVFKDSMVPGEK

## CCCCc1ccc(/C=C/C(=O)NCc2ccc(O)c(OC)c2)cc1 [Example 8, para-butyl-trans-N-(4-hydroxy-3-methoxybenzyl)-cinnamic acid amide]
[1]
  Emax at 10 µM: 132%
[2]
  Emax at 10 µM: 110%

## COc1cc(CNC(=O)/C=C/c2ccc(CC(C)C)cc2)ccc1O [Example 6, para-iso-butyl-trans-N-(4-hydroxy-3-methoxybenzyl)-cinnamic acid amide]
[3]; 0.1 mg/kg i.v.
  Reduction of Nociceptive Behavior Relative to Controls: 70%
[1]
  Emax at 10 µM: 141%
[2]
  Emax at 10 µM: 103%

## COc1cc(CNC(=O)/C=C/c2ccc(C)cc2)ccc1O [Example 1, para-methyl-trans-N-(4-hydroxy-3-methoxybenzyl)-cinnamic acid amide]
[1]
  Emax at 10 µM: 92%
[2]
  Emax at 10 µM: 56%

## CCCCCCCCc1ccc(/C=C/C(=O)NCc2ccc(O)c(OC)c2)cc1 [Example 9, para-octyl-trans-N-(4-hydroxy-3-methoxybenzyl)-cinnamic acid amide]
[3]; 0.1 mg/kg i.v.
  Reduction of Nociceptive Behavior Relative to Controls: 47%
[1]
  Emax at 10 µM: 126%
[2]
  Emax at 10 µM: 97%

## CCc1ccc(/C=C/C(=O)NCc2ccc(O)c(OC)c2)cc1 [Example 2, para-ethyl-trans-N-(4-hydroxy-3-methoxybenzyl)-cinnamic acid amide]
[3]; 0.1 mg/kg i.v.
  Reduction of Nociceptive Behavior Relative to Controls: 54%
[1]
  Emax at 10 µM: 84%
[2]
  Emax at 10 µM: 71%

## COc1cc(CNC(=O)/C=C/c2ccc(CC(C)(C)C)cc2)ccc1O [Example 7, para-neo-pentyl-trans-N-(4-hydroxy-3-methoxybenzyl)-cinnamic acid amide]
[1]
  Emax at 10 µM: 142%
[2]
  Emax at 10 µM: 102%

## CCCc1ccc(/C=C/C(=O)NCc2ccc(O)c(OC)c2)cc1 [Example 5, para-propyl-trans-N-(4-hydroxy-3-methoxybenzyl)-cinnamic acid amide]
[3]; 0.316 mg/kg i.v.
  Reduction of Nociceptive Behavior Relative to Controls: 55%
[1]
  Emax at 10 µM: 119%
[2]
  Emax at 10 µM: 102%

## COc1cc(CNC(=O)/C=C/c2ccc(C(C)C)cc2)ccc1O [Example 3, para-isopropyl-trans-N-(4-hydroxy-3-methoxybenzyl)-cinnamic acid amide]
[3]; 0.1 mg/kg i.v.
  Reduction of Nociceptive Behavior Relative to Controls: 52%
[1]
  Emax at 10 µM: 97%
[2]
  Emax at 10 µM: 71%

## COc1cc(CNC(=O)/C=C/c2ccc(C(C)(C)C)cc2)ccc1O [Example 4, para-tert.-Butyl-trans-N-(4-hydroxy-3-methoxybenzyl)-cinnamic acid amide]
[3]; 0.1 mg/kg i.v.
  Reduction of Nociceptive Behavior Relative to Controls: 63%
[1]; FLIPR Ca2+ influx
  EC50: 0.129 nM
[1]
  Emax at 10 µM: 106%
[2]; FLIPR Ca2+ influx
  EC50: 0.147 nM
[2]
  Emax at 10 µM: 115%
